Assay results reported in patent US9913468B2, “Microbicidal composition” (Dow Global Technologies LLC, priority 2013, dated 2018).
Where two headings read alike, the source gives them in different places.

What was measured:
Assay type in all cases: cell-based
[1] = tested on: Aspergillus niger ATCC#16404; test: MIC / synergy index test in 96 well microtiter plates, mold; details: 3rd day, PDB; for MIC: Aspergillus niger, ATCC16404, DTEA alone, A. niger, read-out: MIC alone, CB (compound B)
Experimental: (§1) Surfactants and biocides were evaluated for synergy by determining the synergy index (S.I.) of the combination. Synergy index was calculated based on minimum inhibitory concentrations (MIC) of two antimicrobial compounds (A and B) alone and in combinations. The tests organisms were Gram negative bacteria (Pseudomonas aeruginosa ATCC #15442), Gram positive bacteria (Staphylococcus aureus ATCC #6538), yeast (Candida albicans ATCC#10203) and mold (Aspergillus niger ATCC#16404). Contact time for the bacteria was 24 and 48 hours, yeast was 48 and 72 hrs, and 3 and 7 days for mold. The test was carried out in 96 well microtiter plates. R^1O(CH2CH(CH3)O)5(CH2CH2O)9H, where R^1 is 2-ethylhexyl Surf. A R^2O(CH2CH(CH3)O)3(CH2CH2O)5H Surf. D R^2O(CH2CH(CH3)O)3(CH2CH2O)7H Surf. E In Surf. D and Surf. E, R^2 is a mixture of C8-C14 linear alkyl groups (70% C8-C10 linear alkyl and 30% C12-C14 linear alkyl) Inoculums Used
(§2) The pH of the Triptic soy broth was 7.3 and the Potato dextrose broth was 5.1.
(§3) SI is calculated as follows: Ca/CA+Cb/CB=Synergy Index (“SI”) Wherein: • CA=concentration of compound A in ppm, acting alone, which produced an end point (MIC of Compound A). • Ca=concentration of compound A in ppm, in the mixture, which produced an end point. • CB=concentration of compound B in ppm, acting alone, which produced an end point (MIC of Compound B). • Cb=concentration of compound B in ppm, in the mixture, which produced an end point. When the sum of Ca/CA and Cb/CB is greater than one, antagonism is indicated.

[2] = tested on: Staphylococcus aureus ATCC #6538; test: MIC / synergy index test in 96 well microtiter plates, Gram positive bacteria; details: S. aureus, 1/10 TSB; for MIC: Staphylococcus aureus, ATCC6538, 24 h, DTEA alone, read-out: MIC alone, CB (compound B)
Experimental: as §1, §2, §3

[3] = tested on: Pseudomonas aeruginosa ATCC #15442; test: MIC / synergy index test in 96 well microtiter plates, Gram negative bacteria; details: ATCC15442, 24 h, read-out: MIC alone, CB (compound B)
Experimental: as §1, with “Used […]” for “Used”
(§4) SI is calculated as follows: Ca/CA+Cb/CB=Synergy Index (“SI”) Wherein: • CA=concentration of compound A in ppm, acting alone, which produced an end point (MIC of Compound A). • Ca=concentration of compound A in ppm, in the mixture, which produced an end point. • CB=concentration of compound B in ppm, acting alone, which produced an end point (MIC of Compound B). • Cb=concentration of compound B in ppm, in the mixture, which produced an end point. […]

[4] = tested on: Candida albicans ATCC#10203; test: MIC / synergy index test in 96 well microtiter plates, yeast; details: C. albicans, PDB; for MIC: Candida albicans, ATCC10203, 48 h, DTEA alone, read-out: MIC alone, CB (compound B)
Experimental: as §1, §2, §3

[5] = tested on: any organism tested (Pseudomonas aeruginosa, Staphylococcus aureus, Candida albicans, Aspergillus niger); test: Synergy of other biocides paired with the surfactants, any organism tested; details: listed under Surf. D; except for one data point
Experimental: as §1, §4

[6] = inoculum 1.156E+06, Surf. A series

CCCCCCCCCCSCCN [DTEA, 2-decylthioethylamine]
MIC [1, 6]: 200 µg/mL
MIC ([1]; inoculum 1.156E+06, Surf. D series): 100 µg/mL
MIC ([1]; inoculum 1.56E+06, Surf. E series): 200 µg/mL
MIC [2, 6]: 4 µg/mL
MIC ([2]; inoculum 1.156E+06, Surf. E series): 5 µg/mL
MIC ([2]; inoculum 1.8E+05, Surf. D series): 5 µg/mL
MIC [3]: 20 µg/mL
MIC [4, 6]: 50 µg/mL
MIC ([4]; inoculum 1.8E+06, Surf. E series): 50 µg/mL
MIC ([4]; inoculum 5.72E+05, Surf. D series): 40 µg/mL

R^1O(CH2CH(CH3)O)5(CH2CH2O)9H, where R^1 is 2-ethylhexyl [Surf. A]
MIC alone, CA (compound A) ([1]; Surf. A alone, inoculum 1.156E+06): >20000 ppm
MIC alone, CA (compound A) ([2]; Surf. A alone, 24 hrs, inoculum 1.156E+06): >20000 ppm
MIC alone, CA (compound A) ([4]; Surf. A alone, 48 hrs, inoculum 1.156E+06): >20000 ppm

Cn1sc2ccccc2c1=O [MBIT]
Ratio of surfactant to biocide where synergy was observed [5]: synergistic only at 1:0.05 or worse

CCCCNC(=O)OCC#CI [IPBC]
Ratio of surfactant to biocide where synergy was observed [5]: synergistic only at 1:0.05 or worse
